Measurements: paper PMC11091889, “Silver Organometallics that are Highly Potent Thioredoxin and Glutathione Reductase Inhibitors: Exploring the Correlations of Solution Chemistry with the Strong Antibacterial Effects” (ACS Infectious Diseases, 2024)

Legend:
[1] = tested on: E. coli (DSM1116, ATCC 9637); assay: microbe, parasite or virus in culture; format: cell-based, Escherichia coli; settings: n = 3, MHB; for EC50 / MIC E. coli: mean ± standard error; for MIC E. coli / MIC E. coli (value in brackets): 22 h
Procedure, shortened: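 Escherichia coli DSM1116 (ATCC 9637) was tested by broth microdilution in 96-well plates in duplicate, with compounds serially diluted from 64 to 1 μg/mL. Inocula of 2–8 × 10^5 CFU/mL were used in MHB (21 g/L Müller Hinton broth, pH 7.4), either alone or supplemented with tryptone (17 g/L) or yeast extract (3 g/L). After 22 h at 37 °C, absorbance at 600 nm was read. MIC and EC50 were obtained by curve fitting in Sigma Plot from three independent experiments, and ciprofloxacin served as the positive control.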

[2] = tested on: Caco-2 cells; settings: read-out: Cytotoxicity IC50 Caco-2; 24 h, almost confluent cell layers, highest concentration 100 μM
Protocol: Besides the antimicrobial effects, the toxic effects of silver ions have to be considered.[10],[12] As a primary evaluation of the cell toxicity triggered by silver NHC complexes, almost confluent cell layers of CaCo-2 cells were grown and challenged for 24 h with the silver complexes and also with the silver reference compounds AgNO3 and SSD (see Figure 6).
Caco-2 cells were grown as almost confluent monolayers in 96-well plates. The complexes were dissolved in wells of 96-well plates as stock solutions in DMSO (0.2% v/v) diluted with DMEM cell culture medium, which was supplemented with 10% fetal calf serum and 50 mg/L gentamicin. The cell layers were incubated with the drug containing media for 24 h at 37 °C/5% CO2 in an incubator. The cell viability was determined using crystal violet (0.02%) staining and was calculated as percentage of an untreated control. Results were obtained in three independent experiments.

[3] = Conductometry: molar conductivity of silver complexes in DMSO; format: physicochemical; settings: 1.0 mM in DMSO, calculated as monocarbene (NHC)AgX
Procedure, shortened: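 Molar conductivity of each silver complex was measured at 1.0 mM in freshly distilled DMSO (specific conductivity ≤3 × 10^–8 S cm^–1) using an Apera Instruments EC9500 conductivity meter at 25 ± 2 °C. AgNO3 served as the 1:1 electrolyte reference, and readings were taken after dissolution to distinguish neutral monocarbene from ionic biscarbene forms.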

[4] = tested on: S. aureus MRSA (DSM 11822, ICB 25701); assay: microbe, parasite or virus in culture; format: cell-based, methicillin resistant S. aureus; settings: n = 3, TSY; for MIC MRSA / EC50: mean ± standard error; for MIC MRSA / MIC MRSA (value in brackets): 22 h; for EC50: read-out: EC50 MRSA
Procedure, shortened: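 Broth microdilution in TSY (30 g/L trypticase soy broth, 3 g/L yeast extract, pH 7.0–7.2), inoculum 2–8 × 10^5 CFU/mL, compounds serially diluted 64 to 1 μg/mL, 22 h at 37 °C. Growth read as absorbance at 600 nm; MIC and EC50 obtained by curve fitting, three independent experiments.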

[5] = tested on: P. aeruginosa PA7 (DSM 24068); assay: microbe, parasite or virus in culture; format: cell-based, Pseudomonas aeruginosa; settings: n = 3, MHB; for MIC P. aeruginosa / EC50: mean ± standard error; for MIC P. aeruginosa / MIC P. aeruginosa (value in brackets): 22 h; for EC50: read-out: EC50 P. aeruginosa
Procedure, shortened: (§1)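 Broth microdilution used 2–8 × 10^5 CFU/mL inocula, with compounds serially diluted 64 to 1 μg/mL and incubated 22 h at 37 °C, read at 600 nm. A. baumannii, K. pneumoniae and P. aeruginosa were grown in MHB pH 7.4; E. faecium was grown in TSY pH 7.0–7.2. MIC and EC50 were obtained by curve fitting from three independent experiments.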

[6] = tested on: E. faecium (DSM 20477, ATCC 19434); assay: Broth microdilution antibacterial assay; format: cell-based, Enterococcus faecium; settings: n = 3, TSY; for MIC E. faecium / EC50: mean ± standard error; for MIC E. faecium / MIC E. faecium (value in brackets): 22 h; for EC50: read-out: EC50 E. faecium
Procedure, shortened: as §1

[7] = tested on: A. baumannii (DSM 30007, ATCC 19606); assay: Broth microdilution antibacterial assay; format: cell-based, Acinetobacter baumannii; settings: n = 3, MHB; for MIC A. baumannii / EC50: mean ± standard error; for MIC A. baumannii / MIC A. baumannii (value in brackets): 22 h; for EC50: read-out: EC50 A. baumannii
Procedure, shortened: as §1

[8] = tested on: K. pneumoniae (DSM 11678, ATCC33495); assay: Broth microdilution antibacterial assay; format: cell-based, Klebsiella pneumoniae; settings: n = 3, MHB; for MIC K. pneumoniae / EC50: mean ± standard error; for MIC K. pneumoniae / MIC K. pneumoniae (value in brackets): 22 h; for EC50: read-out: EC50 K. pneumoniae
Procedure, shortened: as §1

[9] = tested on: P. aeruginosa (PA 14) biofilm; assay: Inhibition of biofilm formation, crystal violet staining; format: cell-based, Pseudomonas aeruginosa; settings: for smallest active concentration for biofilm inhibition: concentration at which the % inhibition was found; for biofilm inhibition: ± SD, n = 4, at the respective smallest active concentration, 24 h
Description: Silver and its complexes can strongly affect the growth of biofilms.[56]−[58] In view of the promising activity against Gram-negative bacteria as mentioned above, we evaluated the inhibiting effect of the silver complexes on biofilm production by P. aeruginosa by a method based on crystal violet staining (Table 4 and Figure S14). Complexes 3a–c and 4a–c were selected for the test based on the results of solubility, stability, and antibacterial screening. […] The lower activity of 3c might be explained by its lower kinetic solubility in the aqueous environment (see Figure 4).
The antibiofilm activity was determined according to a literature method.[73] A 1 mL aliquot of P. aeruginosa (PA 14) was taken from −20 °C stock, incubated in 25 mL LB medium (Luria–Bertani Broth) in a 250 mL flask, and kept at 37 °C at 100 rpm overnight. The optical density at 600 nm (OD600) of the culture solution was adjusted to match the turbidity of a 0.1 McFarland standard in M63 medium.[74] Selected compounds were mixed with 150 μL of bacterial solution in U-bottom 96 well plates to the final respective concentrations (25–0.2 μg/mL). The plates were further incubated at 37 °C for 24 h while shaking at 150 rpm. Afterward, the plates were rinsed once with 150 μL of PBS buffer, and the biofilms were stained using 150 μL of crystal violet (0.1%) staining at room temperature for 15 min and then rinsed once with PBS buffer. After rinsing, 150 μL of ethanol (95%) was added, and the absorbance was quantified using a plate reader (Synergy 2, BioTek, Santa Clara, USA) at 550 nm. The resulting antibiofilm activity is presented as percentage of inhibition at the respective smallest active concentration in μM with standard deviation (SD) of two repeats with duplicates. Myxovalargin A and DMSO (2.5%) were used as the positive and negative controls, respectively.

Compound	EC50 [1]	MIC E. coli [1]	MIC E. coli (value in brackets) [1]	Molar conductivity ΛM ([3]; 1 h after dissolution)	Molar conductivity ΛM ([3]; 24 h after dissolution)	MIC MRSA [4]	EC50 [4]	MIC MRSA (value in brackets) [4]	MIC P. aeruginosa [5]	EC50 [5]	MIC P. aeruginosa (value in brackets) [5]	MIC E. faecium [6]	EC50 [6]	MIC E. faecium (value in brackets) [6]	MIC A. baumannii [7]	EC50 [7]	MIC A. baumannii (value in brackets) [7]	MIC K. pneumoniae [8]	EC50 [8]	MIC K. pneumoniae (value in brackets) [8]	other results
Cn1[c](=[Ag][I])n(Cc2ccccn2)c2ccccc21 [1c, Iodido (1-Methyl-3-(pyridin-2-ylmethyl)-benzimidazol-2-ylidene) Silver(I)]	6.4 ± 1.1 µM	11.6 ± 2.9 µM	5 mg/L	7.82 S cm^2 mol^–^1	8.13 S cm^2 mol^–^1	> 140 µM	> 140 µM	> 64 mg/L	14.6 ± 2.9 µM	5 ± 0.5 µM	7 mg/L	> 140 µM	> 140 µM	> 64 mg/L	8.7 ± 0.0 µM	4.1 ± 0.4 µM	4 mg/L	5.1 ± 1.9 µM	2 ± 0.2 µM	2 mg/L	IC50 [2]: > 100 µM
COCCn1[c](=[Ag][Br])n(Cc2ccccn2)c2ccccc21 [4b, Bromido (1-(2-Methoxyethyl)-3-(pyridin-2-ylmethyl)-benzimidazol-2-ylidene) Silver(I)]	59.2 ± 4.3 µM	70.3 ± 0.0 µM	32 mg/L	5.11 S cm^2 mol^–^1	5.08 S cm^2 mol^–^1	141 ± 0.0 µM	78.3 ± 2 µM	64 mg/L	23.4 ± 5.9 µM	8.6 ± 1.1 µM	11 mg/L	141 ± 0.0 µM	120 ± 0.8 µM	64 mg/L	11.7 ± 2.9 µM	2.1 ± 0.1 µM	5 mg/L	17.6 ± 0.0 µM	9.8 ± 1 µM	8 mg/L	smallest active concentration for biofilm inhibition [9]: 6.8 µM; biofilm inhibition [9]: 70 ± 5%
COCCn1[c]([Ag][Cl])[n+](Cc2ccccn2)c2ccccc21 [4a]	31.1 ± 1.8 µM	39.0 ± 0.0 µM	16 mg/L	3.38 S cm^2 mol^–^1	3.01 S cm^2 mol^–^1	156 ± 0.0 µM	85.7 ± 0.6 µM	64 mg/L	26.0 ± 6.5 µM	9.6 ± 0.3 µM	11 mg/L	156 ± 0.0 µM	123 ± 6.1 µM	64 mg/L	16.2 ± 3.2 µM	1.9 ± 0.4 µM	7 mg/L	9.74 ± 0.0 µM	5.2 ± 0.1 µM	4 mg/L	smallest active concentration for biofilm inhibition [9]: 7.6 µM; biofilm inhibition [9]: 71 ± 3%
CCn1[c](=[Ag][I])n(Cc2ccccn2)c2ccccc21 [2c, Iodido (1-Ethyl-3-(pyridin-2-ylmethyl)-benzimidazol-2-ylidene) Silver(I)]	12.8 ± 1.1 µM	16.9 ± 0.0 µM	8 mg/L	6.98 S cm^2 mol^–^1	6.28 S cm^2 mol^–^1	> 136 µM	> 136 µM	> 64 mg/L	45.2 ± 11.3 µM	14.2 ± 0.8 µM	21 mg/L	> 136 µM	> 136 µM	> 64 mg/L	8.5 ± 0.0 µM	2.9 ± 0.5 µM	4 mg/L	11.3 ± 2.8 µM	5.9 ± 1.7 µM	5 mg/L	IC50 [2]: > 100 µM
